Assay results published in patent US6403607B1, “Sulfonamide derivatives and drugs containing the same as the active ingredient” (priority 1998, dated 2002).
Values after ≈ are worked out from the molar mass of the structure shown. Where two headings read alike, the source gives them in different places.

Columns and labels:
gastric acid secretion = assay: Acid-secretion suppression (pyloric ligation); assay type: in vivo, Rats; details: pyloric region ligated, drug to the duodenum, gastric juice after four hours, total acidity by titration; dose not given
Experimental: Acid-secretion Suppression Rats were fasted for 24 hours and the abdomens of the rats were dissected under anesthesia with ether. The pyloric region was ligated and a drug was administered to the duodenum. After four hours, the stomach was removed and the gastric juice was collected to evaluate the acid-secretion suppresssing effects by measuring the total acidity of the gastric juice through titration.

Helicobacter pylori = assay: Anti-Helicobacter-pylori action (agar plate dilution MIC); assay type: cell-based; details: clinically isolated 10 bacterial strains, agar plate dilution method
Experimental: Anti-Helicobacter-pylori Action
Using clinically isolated 10 bacterial strains, the minimum inhibitory concentration (MIC) was measured according to the agar plate dilution method.

[1] = test system: ethanol ulcer in the gland gastric region; assay: Ethanol ulcer; assay type: in vivo; details: rats fasted 24 hours, drug oral, 99.5% ethanol 1 ml/rat after one hour, size of ulcer one hour later; dose not given
Experimental: Ethanol Ulcer Rats were fasted for 24 hours and orally administered with a drug. After one hour, 99.5% ethanol (1 ml/rat) was fed through oral administration. After one hour of ethanol administration, the abdomens of the rats were dissected and the size of ulcer in the gland gastric region was measured for each rat.

H/K-ATPase = H/K-ATPase (Oryctolagus cuniculus, UniProt P27112); assay: H/K-ATPase inhibition; assay type: biochemical; details: pH 7.4, H/K-ATPase from rabbit gastric mucous membrane
Experimental: H/K-ATPase Inhibition The inhibitory effect was measured under pH 7.4, by using H/K-ATPase isolated and purified from the rabbit gastric mucous membrane.

rat red blood cell = assay: Hemolytic action; assay type: cell-based; details: 10% rat red blood cell stock, 1% DMSO containing saline, 30 minutes at 37° C., absorbance 540 nm
Experimental: Hemolytic Action […] After incubation for 30 minutes at, 37° C., the mixture was centrifugally separated and the supernatant was obtained. The absorbance (540 nm) of the supernatant was measured. The hemolysis ratio was calculated.

[2] = Helicobacter pylori, read-out: MIC

Sequence of H/K-ATPase (P27112 whole entry): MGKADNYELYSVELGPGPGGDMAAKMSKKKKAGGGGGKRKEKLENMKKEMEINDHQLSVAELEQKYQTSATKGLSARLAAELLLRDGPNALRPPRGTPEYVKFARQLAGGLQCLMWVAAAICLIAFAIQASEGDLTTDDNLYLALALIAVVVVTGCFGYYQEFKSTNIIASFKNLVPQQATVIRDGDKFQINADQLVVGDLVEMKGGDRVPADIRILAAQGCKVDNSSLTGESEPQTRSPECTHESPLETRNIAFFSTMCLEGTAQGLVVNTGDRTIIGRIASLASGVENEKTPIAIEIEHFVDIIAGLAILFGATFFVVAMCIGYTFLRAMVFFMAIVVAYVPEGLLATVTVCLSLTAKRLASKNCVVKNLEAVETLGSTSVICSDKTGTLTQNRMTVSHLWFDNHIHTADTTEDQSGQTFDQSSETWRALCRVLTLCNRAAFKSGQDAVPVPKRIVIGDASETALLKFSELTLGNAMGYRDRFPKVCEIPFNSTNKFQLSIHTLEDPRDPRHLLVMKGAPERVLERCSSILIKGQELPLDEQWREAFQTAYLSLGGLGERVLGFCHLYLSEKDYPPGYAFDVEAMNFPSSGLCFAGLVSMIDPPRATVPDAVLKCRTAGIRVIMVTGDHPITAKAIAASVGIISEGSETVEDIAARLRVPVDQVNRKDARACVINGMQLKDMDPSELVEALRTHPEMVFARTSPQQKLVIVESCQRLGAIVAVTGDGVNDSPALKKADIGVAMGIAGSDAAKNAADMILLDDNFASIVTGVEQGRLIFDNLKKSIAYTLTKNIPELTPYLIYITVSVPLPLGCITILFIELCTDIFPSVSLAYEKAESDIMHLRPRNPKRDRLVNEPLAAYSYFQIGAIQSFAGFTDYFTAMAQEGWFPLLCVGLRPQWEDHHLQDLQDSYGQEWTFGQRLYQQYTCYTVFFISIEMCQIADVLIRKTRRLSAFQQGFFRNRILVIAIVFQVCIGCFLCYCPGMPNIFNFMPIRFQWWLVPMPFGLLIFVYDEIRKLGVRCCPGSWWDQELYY
Sequence of H/K-ATPase (P18597 whole entry partner): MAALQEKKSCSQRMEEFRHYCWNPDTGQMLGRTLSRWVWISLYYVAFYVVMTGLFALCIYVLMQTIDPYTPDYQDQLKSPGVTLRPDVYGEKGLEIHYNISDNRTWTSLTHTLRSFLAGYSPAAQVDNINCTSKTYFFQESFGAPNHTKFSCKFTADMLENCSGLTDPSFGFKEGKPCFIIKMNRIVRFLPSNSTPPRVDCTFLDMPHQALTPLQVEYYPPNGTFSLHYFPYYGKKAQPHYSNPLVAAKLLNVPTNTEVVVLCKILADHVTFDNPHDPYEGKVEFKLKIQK

SMILES | Suppression (gastric acid secretion) | MIC (Helicobacter pylori) | Suppression [1] | IC50 (H/K-ATPase) | MIC (Helicobacter pylori; [2]) | HC50 (rat red blood cell)
NCCCCCN(c1ccccc1NCCOc1ccc(Cl)cc1)S(=O)(=O)c1ccc(Cl)cc1 [Example 13, N-(5-Aminopenthyl)-N-(4-chlorobenzenesulfonyl)-N′-[2-(4-chlorophenoxy)ethyl]-o-phenylenediamine] | 82% | 25 to 50 mg/L | – | – | – | –
CCCCS(=O)(=O)N(CCOCCN)c1ccccc1NCCOc1ccc(Cl)cc1 [Example 21] | 76% | – | 99% | 49.4 µM | 50 to 100 mg/L (≈ 106 to 213 µM) | 71.1 µg/mL
CC(C)S(=O)(=O)N(CCOCCN)c1ccccc1NCCOc1ccc(Cl)cc1 [Example 25, N-[2-(2-Amino)ethoxyethyl]-N-(2-propanesulfonyl)-N′-[2-(4-chlorophenoxy)ethyl]-o-phenylenediamine] | – | – | – | 140 µM | – | 120 µg/mL
CCCCCCCCS(=O)(=O)N(CCOCCN)c1ccccc1NCCOc1ccc(Cl)cc1 [Example 26, N-[2-(2-Amino)ethoxyethyl]-N-(1-octanesulfonyl)-N′-[2-(4-chlorophenoxy)ethyl]-o-phenylenediamine] | 82% | – | 98% | 2.1 µM | – | –
NCCOCCN(c1ccccc1NCCOc1ccc(Cl)cc1)S(=O)(=O)c1ccc(Br)cc1 [Example 43, N-[2-(2-Amino)ethoxyethyl]-N-(4-bromobenzenesulfonyl)-N′-[2-(4-chlorophenoxy)ethyl]-o-phenylenediamine] | 80% | – | 78% | – | – | >100 µg/mL
NCCOCCN(c1ccccc1NCCOc1ccc(Cl)cc1)S(=O)(=O)c1ccc(I)cc1 [Example 45, N-[2-(2-Amino)ethoxyethyl]-N-(4-iodobenzenesulfonyl)-N′-[2-(4-chlorophenoxy)ethyl]-o-phenylenediamine] | 80% | – | – | – | – | –
NCCOCCN(c1ccccc1NCCCOc1ccc(Cl)cc1)S(=O)(=O)c1ccc(Cl)cc1 [Example 61, N-[2-(2-Amino)ethoxyethyl]-N-(4-chlorobenzenesulfonyl)-N′-[3-(4-chlorophenoxy)propyl]-o-phenylenediamine] | 87% | – | – | – | – | –
CN(CCOc1ccc(Cl)cc1)c1ccccc1N(CCOCCN)S(=O)(=O)c1ccc(Cl)cc1 [Example 68] | 83% | – | 94% | – | – | –
NCCOCCN(c1ccccc1N(CCOc1ccc(Cl)cc1)Cc1ccccc1)S(=O)(=O)c1ccc(Cl)cc1 [Example 70, N-[2-(2-Amino)ethoxyethyl]-N-(4-chlorobenzenesulfonyl)-N′-benzyl-N′-[2-(4-chlorophenoxy)ethyl]-o-phenylenediamine] | 81% | – | 96% | 1.1 µM | 6.25 to 12.5 mg/L (≈ 10.2 to 20.3 µM) | –
O=S(=O)(c1ccc(Cl)cc1)N(CCC1CCCCN1)c1cccnc1NCCNc1ccc(Cl)cc1 (centres unmarked) [Example 95] | 90% | – | 99% | – | – | –
NCCOCCN(c1ccccc1N1CCN(c2ccc(Cl)cc2)CC1)S(=O)(=O)c1ccc(Cl)cc1 [Example 131, 2-[4-(4-Chlorophenyl)-1-piperazino]-1-[N-[2-(2-aminoethoxy)ethyl]-N-(4-chlorobenzenesulfonyl)]aminobenzene] | 89% | – | – | – | – | –
NCCOCCN(c1ccccc1N1CCCN(c2ccc(Cl)cc2)CC1)S(=O)(=O)c1ccc(Cl)cc1 [Example 134, 2-[4-(4-Chlorophenyl)-1-homopiperazino]-1-[N-[2-(2-aminoethoxy)ethyl]-N-(4-chlorobenzenesulfonyl)]aminobenzene] | 87% | – | 98% | – | – | –
NCCOCCN(c1cccnc1N1CCN(c2ccc(Cl)cc2)CC1)S(=O)(=O)c1ccc(Cl)cc1 [Example 137, 2-[4-(4-Chlorophenyl)-1-piperazino]-3-[N-[2-(2-aminoethoxy)ethyl]-N-(4-chlorobenzenesulfonyl)]aminopyridine] | 76% | – | – | – | – | –
NCCOCCN(c1cccc2c1N(CCOc1ccc(Cl)cc1)CCC2)S(=O)(=O)c1ccc(Cl)cc1 [Example 140, 8-[N-[2-(2-Aminoethoxy)ethyl]-N-(4-chlorobenzenesulfonyl)]amino-1-[2-(4-chlorophenoxy)ethyl]-1,2,3,4-tetrahydroquinone] | 85% | – | 94% | 2 µM | – | –
